# Test results: patent publication US10919852B2, “Immunomodulator compounds” (CHEMOCENTRYX, INC., priority 2017, dated 2021)
# Target: human PD-L1 / Human PD-1 (Homo sapiens (Human), UniProt Q9NZQ7)
# Assay: Enzyme-Linked Immunosorbent Assay (ELISA), PD-1/PD-L1 binding
# Details: plate-coated human PD-L1, biotinylated human PD-1
# Method: Biological Example: Enzyme-Linked Immunosorbent Assay—ELISA
# 96 Well plates were coated with […] of human PD-L1 (obtained from R&D) in PBS overnight at 4° C. The wells were then blocked with 2% BSA in PBS (W/V) with 0.05% TWEEN-20 for 1 hour at 37° C. The plates were washed 3 times with PBS/0.05% TWEEN-20 and the compounds were serial diluted (1:5) in dilution medium and added to the ELISA plates. Human PD-1 and biotin 0.3 μg/mL (ACRO Biosystems) were added and incubated for 1 hour at 37° C. then washed 3 times with PBS/0.05% TWEEN-20. A second block was performed with 2% BSA in PBS (W/V)/0.05% TWEEN-20 for 10 min at 37° C. and was washed 3 times with PBS/0.05% TWEEN-20. Streptavidin-HRP was added for 1 hour at 37° C. then washed 3 times with PBS/0.05% TWEEN-20. TMB substrate was added and reacted for 20 min at 37° C. A stop solution (2 N aqueous H2SO4) was added. The absorbance was read at 450 nm using a micro-plate spectrophotometer.
# Chain of human PD-L1 / Human PD-1 (Q9NZQ7 19-239): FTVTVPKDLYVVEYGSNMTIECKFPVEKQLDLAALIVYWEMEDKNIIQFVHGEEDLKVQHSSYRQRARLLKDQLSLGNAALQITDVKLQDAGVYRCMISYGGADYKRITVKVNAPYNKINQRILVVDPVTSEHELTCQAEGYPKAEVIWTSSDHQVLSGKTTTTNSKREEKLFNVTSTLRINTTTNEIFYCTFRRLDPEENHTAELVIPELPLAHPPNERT
row,IC50 [nM],SMILES
1,< 5,Cc1c(OCCCN2CCC(O)CC2)cccc1-c1cccc2c1CC[C@@H]2Oc1cc(OCc2cncc(C#N)c2)c(CNCc2cn(C)cn2)cc1Cl
2,5 to 500,Cc1c(OCCCN2CCC(C)(F)CC2)cccc1-c1cccc2c1CC[C@@H]2Oc1cc(OCc2cc(C#N)cc(C#N)c2)c(CN[C@H]2CCC(=O)NC2)cc1Cl
3,5 to 500,CCOc1cc(O[C@H]2CCc3c(-c4cccc(OCCCN5CCC(F)CC5)c4Cl)cccc32)c(Cl)cc1CN[C@@H]1CCCC[C@@H]1O
4,5 to 500,CCOc1cc(O[C@H]2CCc3c(-c4cccc(OCCCN5CCC5(C)C)c4C)cccc32)c(Cl)cc1CN(C)CCC(=O)O
5,< 5,CCOc1cc(O[C@H]2CCc3c(-c4cccc(OCCCN5CCC5(C)C)c4C)cccc32)c(Cl)cc1CN(C)CCCC(=O)O
6,5 to 500,CC1(F)CCN(CCCOc2cccc(-c3cccc4c3CC[C@@H]4Oc3cc(OCc4cncc(C#N)c4)c(CN[C@@H]4CCC(=O)NC4)cc3Cl)c2Cl)CC1
7,< 5,Cc1c(OCCCN2CCC2)cccc1-c1cccc2c1CC[C@@H]2Oc1cc(OCc2cc(C#N)cc(C#N)c2)c(CNC[C@H]2CCC(=O)N2)cc1Cl
8,< 5,CC(C)N1CCC(COc2cccc(-c3cccc4c3CC[C@@H]4Oc3cc(OCc4cncc(C#N)c4)c(CN[C@H]4CCC(=O)NC4)cc3Cl)c2Cl)C1 (stereo partly drawn)
9,< 5,Cc1c(OCCCN2C(C)CC2C)cccc1-c1cccc2c1CC[C@@H]2Oc1cc(OCc2cc(C#N)cc(C#N)c2)c(CN[C@H]2CCC(=O)NC2)cc1Cl (stereo partly drawn)
10,5 to 500,CCOc1cc(O[C@H]2CCc3c(-c4cccc(OCCCN5[C@H](C)CC[C@H]5C)c4C)cccc32)c(Cl)cc1CN1CCC(C(=O)O)CC1
11,5 to 500,CC1(F)CCN(CCCOc2cccc(-c3cccc4c3CC[C@@H]4Oc3cc(OCc4cncc(C#N)c4)c(CN4CC5(C4)NC(=O)NC5=O)cc3Cl)c2Cl)CC1
12,< 5,Cc1c(OCCCN2CCC(F)CC2)cccc1-c1cccc2c1CC[C@@H]2Oc1cc(OCc2cncc(C#N)c2)c(CNC[C@H]2CCC(=O)N2)cc1Cl
13,< 5,N#Cc1cncc(COc2cc(O[C@H]3CCc4c(-c5cccc(OCCCN6CCC(F)CC6)c5Cl)cccc43)c(Cl)cc2CNC[C@@H]2CCC(=O)N2)c1
14,< 5,N#Cc1cncc(COc2cc(O[C@H]3CCc4c(-c5cccc(OCCCN6CC(O)C6)c5Cl)cccc43)c(Cl)cc2CNCC(=O)O)c1
15,5 to 500,CCOc1cc(O[C@H]2CCc3c(-c4cccc(OCCCN5CCC5(C)C)c4C)cccc32)c(Cl)cc1CN(C)C(C)CC(=O)O (stereo partly drawn)
16,< 5,Cc1c(OCCCN2CCC(C)CC2)cccc1-c1cccc2c1CC[C@@H]2Oc1cc(OCc2cc(C#N)cc(C#N)c2)c(CNC[C@H]2CCC(=O)N2)cc1Cl
17,< 5,Cc1c(OCCCN2CCC[C@@H](O)C2)cccc1-c1cccc2c1CC[C@@H]2Oc1cc(OCc2cncc(C#N)c2)c(CN[C@H](C(=O)O)[C@@H](C)O)cc1Cl
18,5 to 500,N#Cc1cncc(COc2cc(O[C@H]3CCc4c(-c5cccc(OCCCN6CC(O)C6)c5Cl)cccc43)c(Cl)cc2CN2CCC3(C2)NC(=O)NC3=O)c1 (stereo partly drawn)
19,< 5,Cc1c(OCCCN2CCC(O)CC2)cccc1-c1cccc2c1CC[C@@H]2Oc1cc(OCc2cncc(C#N)c2)c(CN2CC[C@H](O)C2)cc1Cl

row,IC50 [nM],SMILES
1,5 to 500,CCOc1cc(O[C@@H]2c3cccc(-c4cccc(OCCCN5CC(F)C5)c4Cl)c3C[C@@H]2F)c(Cl)cc1CN[C@@](C)(CO)C(=O)O
2,< 5,Cc1c(OCCCN2CCCCC2)cccc1-c1cccc2c1CC[C@@H]2Oc1cc(OCc2cncc(C#N)c2)c(CNC[C@H]2CCC(=O)N2)cc1Cl
3,< 5,Cc1c(OCCCN2CC[C@@H](F)C2)cccc1-c1cccc2c1CC[C@@H]2Oc1cc(OCc2cncc(C#N)c2)c(CN[C@@H]2CCCC[C@@H]2O)cc1Cl
4,< 5,Cc1c(OCCCN[C@@H]2CCCC[C@@H]2O)cccc1-c1cccc2c1CC[C@@H]2Oc1cc(OCc2cncc(C#N)c2)c(CN[C@H](C(=O)O)[C@@H](C)O)cc1Cl
5,5 to 500,CCOc1cc(O[C@H]2CCc3c(-c4cccc(OCCCN5CCC5(C)C)c4C)cccc32)c(Cl)cc1CN1CC[C@H](C(=O)OC)C1
6,< 5,C[C@@](CO)(NCc1cc(Cl)c(O[C@H]2CCc3c(-c4cccc(OCCCN5CCC(O)CC5)c4F)cccc32)cc1OCc1cncc(C#N)c1)C(=O)O
7,5 to 500,CCOc1cc(O[C@H]2CCc3c(-c4cccc(OCCCN5CCC5C(C)(C)C)c4C)cccc32)c(Cl)cc1CNC[C@@H]1CCC(=O)N1 (stereo partly drawn)
8,5 to 500,Cc1c(OCCCN2CC(F)(F)C2)cccc1-c1cccc2c1CC[C@@H]2Oc1cc(OCc2cc(C#N)cc(C#N)c2)c(CNC[C@H]2CCC(=O)N2)cc1Cl
9,< 5,Cc1c(OCCCN2CCCC2(C)C)cccc1-c1cccc2c1CC[C@@H]2Oc1cc(OCc2cc(C#N)cc(C#N)c2)c(CN[C@H]2CCC(=O)NC2)cc1Cl
10,< 5,N#Cc1cncc(COc2cc(O[C@H]3CCc4c(-c5cccc(OCCCN6CC(O)C6)c5Cl)cccc43)c(Cl)cc2CN2CCC(O)CC2)c1
11,< 5,N#Cc1cncc(COc2cc(O[C@H]3CCc4c(-c5cccc(OCCCN6CCC6)c5Cl)cccc43)c(Cl)cc2CNC[C@H]2CCC(=O)N2)c1
12,< 5,CN(Cc1cc(Cl)c(O[C@H]2CCc3c(-c4cccc(OCCCN5CC(O)C5)c4Cl)cccc32)cc1OCc1cncc(C#N)c1)[C@@](C)(CO)C(=O)O
13,< 5,N#Cc1cncc(COc2cc(O[C@H]3CCc4c(-c5cccc(OCCCN6CCC(F)CC6)c5Cl)cccc43)c(Cl)cc2CN[C@@H]2CCOC[C@@H]2O)c1
14,< 5,N#Cc1cncc(COc2cc(O[C@H]3CCc4c(-c5cccc(OCCCN6CCC(F)CC6)c5Cl)cccc43)c(Cl)cc2CNCC2CNC(=O)C2)c1 (stereo partly drawn)
15,5 to 500,CCOc1cc(O[C@H]2CCc3c(-c4cccc(OCCCN5CCC5(C)C)c4C)cccc32)c(Cl)cc1CN1CC(C)(C(=O)O)C1
16,< 5,Cc1c(OCCCN2CCC(F)CC2)cccc1-c1cccc2c1CC[C@@H]2Oc1cc(OCc2cncc(C#N)c2)c(CNCCS(=O)(=O)O)cc1Cl
17,< 5,Cc1c(OCCCN2CCC(O)CC2)cccc1-c1cccc2c1CC[C@@H]2Oc1cc(OCc2cncc(C#N)c2)c(CN2CC(O)C2)cc1Cl
18,5 to 500,Cc1c(OCCCN2CC(C)(F)C2)cccc1-c1cccc2c1CC[C@@H]2Oc1cc(OCc2cc(C#N)cc(C#N)c2)c(CNC[C@H]2CCC(=O)N2)cc1Cl
19,< 5,Cc1c(OCCCN2CCC(O)CC2)cccc1-c1cccc2c1CC[C@@H]2Oc1cc(OCc2cc(C#N)cc(C#N)c2)c(CN[C@@H]2CCCC[C@@H]2O)cc1Cl

row,IC50 [nM],SMILES
1,< 5,N#Cc1cncc(COc2cc(O[C@H]3CCc4c(-c5cccc(OCCCN6CC7(CC(F)C7)C6)c5Cl)cccc43)c(Cl)cc2CN[C@@H]2CC[C@H]2O)c1
2,< 5,N#Cc1cncc(COc2cc(O[C@H]3CCc4c(-c5cccc(OCCCN6CCC(F)CC6)c5Cl)cccc43)c(Cl)cc2CN2CC3(C2)NC(=O)NC3=O)c1
3,5 to 500,CCOc1cc(O[C@H]2CCc3c(-c4cccc(OCCCN5CCC5(C)C)c4C)cccc32)c(Cl)cc1CNCC(C)(C)CO
4,< 5,CCOc1cc(O[C@H]2CCc3c(-c4cccc(OCCCN5CC[C@@H](O)C5)c4C)cccc32)c(Cl)cc1CNC(C)(CO)C(=O)O (stereo partly drawn)
5,5 to 500,Cc1c(OCCCN2CC(C)(F)C2)cccc1-c1cccc2c1CC[C@@H]2Oc1cc(OCc2cc(C#N)cc(C#N)c2)c(CN[C@H]2CCC(=O)NC2)cc1Cl
6,5 to 500,Cc1c(OCCCN2CCC(F)CC2)cccc1-c1cccc2c1C[C@H](F)[C@@H]2Oc1cc(OCc2cc(C#N)cc(C#N)c2)c(CN[C@H]2CCC(=O)NC2)cc1Cl
7,< 5,Cc1c(OCCCN2CCCC[C@H]2C)cccc1-c1cccc2c1CC[C@@H]2Oc1cc(OCc2cc(C#N)cc(C#N)c2)c(CNC[C@H]2CCC(=O)N2)cc1Cl
8,< 5,N#Cc1cncc(COc2cc(O[C@H]3CCc4c(-c5cccc(OCCCN6CCCCC6)c5Cl)cccc43)c(Cl)cc2CNC[C@@H]2CCC(=O)N2)c1
9,5 to 500,CCOc1cc(O[C@H]2CCc3c(-c4cccc(OCCCN5CC[C@@H](O)C5)c4C)cccc32)c(Cl)cc1CN[C@@](C)(CO)C(=O)OC(C)C
10,5 to 500,Cc1c(OCCCN2CCCCC2(C)C)cccc1-c1cccc2c1CC[C@@H]2Oc1cc(OCc2cc(C#N)cc(C#N)c2)c(CNC[C@H]2CCC(=O)N2)cc1Cl
11,< 5,Cc1c(OCCCN2CCC(F)CC2)cccc1-c1cccc2c1CC[C@@H]2Oc1cc(OCc2cncc(C#N)c2)c(CNC[C@@H]2CCC(=O)N2)cc1Cl
12,5 to 500,CCOc1cc(O[C@H]2CCc3c(-c4cccc(OCCCN5CCC5(C)C)c4C)cccc32)c(Cl)cc1CN(C)CC(C)(C)C(=O)O
13,< 5,CC(C)N1CCC(COc2cccc(-c3cccc4c3CC[C@@H]4Oc3cc(OCc4cncc(C#N)c4)c(CNC[C@@H]4CCC(=O)N4)cc3Cl)c2Cl)C1 (stereo partly drawn)
14,< 5,N#Cc1cncc(COc2cc(O[C@H]3CCc4c(-c5cccc(OCCCN6CCC(O)CC6)c5Cl)cccc43)c(Cl)cc2CNC[C@H]2CCC(=O)N2)c1
15,5 to 500,CCOc1cc(O[C@@H]2c3cccc(-c4cccc(OCCCN5CCC(F)CC5)c4Cl)c3C[C@@H]2F)c(Cl)cc1CNC[C@H]1CCC(=O)N1
16,< 5,N#Cc1cncc(COc2cc(O[C@H]3CCc4c(-c5cccc(OCCCN6CC7(CC(F)C7)C6)c5Cl)cccc43)c(Cl)cc2CN[C@@H]2CCC[C@@H]2O)c1
17,< 5,CC1(O)CN(CCCOc2cccc(-c3cccc4c3CC[C@@H]4Oc3cc(OCc4cncc(C#N)c4)c(CN[C@@](C)(CO)C(=O)O)cc3Cl)c2Cl)C1
18,5 to 500,CCOc1cc(O[C@H]2CCc3c(-c4cccc(OCCCN5[C@H](C)CC[C@H]5C)c4C)cccc32)c(Cl)cc1CN1CCC[C@H](C(=O)O)C1

row,SMILES,IC50 [nM]
1,Cc1c(OCCCN2C3CCC2CC(O)C3)cccc1-c1cccc2c1CC[C@@H]2Oc1cc(OCc2cncc(C#N)c2)c(CNCC2CCC(=O)N2)cc1Cl (stereo partly drawn),< 5
